# Key:
# Sprague-Dawley rats = assay: Study No. 15-3 (GLP): 14-day once daily oral gavage toxicity of fospropofol disodium; assay type: in vivo
# Protocol: (§1) The purpose of Study No. 15-3 (GLP) was to determine the potential toxicity of fospropofol in Sprague-Dawley rats when administered once daily by oral gavage for 14 days. […] The cause of death for the three 250 mg/kg/day group main study females found dead could not be determined, but was considered related to the pharmacodynamic effects of fospropofol, based on the time of death relative to the time of close administration, and the clinical signs recorded before death. Clinical observations during the closing period for these animals included labored breathing, prostrate, splayed hindlimbs, uncoordinated movement, decreased activity, and eyes closed.
# (§2) Pivotal GLP 14-day repeat-close toxicity studies with 7-day recovery periods were conducted in Sprague-Dawley rats (Study No. 15-3) and Beagle dogs (Study No. 15-4). […] The cause of death for these animals was considered to be related to the known pharmacodynamic effects of high doses of fospropofol, based on the time of death relative to the time of close administration, and the clinical signs recorded before death which included: labored breathing, prostrate, splayed hindlimbs, uncoordinated movement, decreased activity, and eyes closed. […] The NOAEL was determined to be 100 mg/kg/day (600 mg/m^2/day) in male and female Sprague-Dawley rats.
# [1] = as above; assay type: in vivo, Sprague-Dawley rats; conditions: both sexes, rat, in vivo; 14 days once daily oral gavage, Sprague-Dawley rats
# Protocol: as §1, §2
# [2] = Study No. 15-2 (non-GLP): MTD and 7-day once daily oral gavage toxicity of fospropofol disodium; assay type: in vivo, Beagle dogs; conditions: dog, in vivo, Beagle dogs
# Beagle dogs = assay: as above; assay type: in vivo
# [3] = system: adult women and men experiencing moderate to severe migraine headache; assay: Study A17: safety-tolerability (TEAEs); conditions: N = 18, 800 mg oral
# Protocol: The study is planned to complete approximately 85 subjects. • Enrolled subjects will be asked to come to the study site for treatment when they experience a qualifying migraine headache. Dosing must occur within 4 hours after onset of the migraine symptoms. If treatment at the study site is not feasible or practicable within 4 hours after onset of migraine symptoms, subjects should use their usual medication for that headache and attempt to visit the clinic for treatment as soon as possible (within 4 hours) after onset of their next migraine headache. Dosing must occur within 60 days after enrollment (see Post-enrollment Period below). • At clinic check-in for treatment, study personnel will verify eligibility for closing regarding the criteria for a qualifying headache and adherence to post-enrollment study restrictions (see Eligibility for Dosing below). • Treatment will consist of a single oral dose of fospropofol disodium. […] Because the prevalence of migraine headaches is higher in women than in men, efforts will be made to enroll at least 50% women. • Subjects must meet the general inclusion and exclusion criteria listed below (Inclusion Criteria and Exclusion Criteria) at screening to be enrolled in the study. To be eligible for fospropofol disodium treatment after onset of a migraine headache, enrolled subjects must meet criteria specific to the presenting headache at clinic check-in (see Qualifying Headache below) and adhere to study restrictions specific to the period between enrollment and clinic check-in (see Post-enrollment Restrictions below). • Inclusion Criteria Subjects must meet all of the following criteria at screening to be enrolled in the study: • 1. Written informed consent approved by the Institutional Review Board (IRB) given before any study-related procedures are performed • 2. […] Complete abstinence alone can be used as a method of contraception. • 6. […] Able to comprehend the nature of the study, capable of giving written informed consent, and able to communicate effectively with clinic staff (as assessed by the investigator) • 8. Available to volunteer for the entire study duration and willing to adhere to all protocol requirements, including the post-enrollment restrictions (see Post-enrollment Restrictions below) • 9. Agrees not to post any information related to the study on any website or social media site (e.g., Facebook, Twitter, LinkedIn, Google+, etc.) until the entire trial has been completed • 10. Willing to forgo rescue medicine for at least 2 hours after initiation of treatment with study drug (see In-Clinic Rescue Medicine) • Exclusion Criteria Subjects to whom any of the following criteria apply at screening will be excluded: • 1. History of hemiplegic migraine (at any time in the past). • 2. History of headaches of any type occurring on ≥15 days/month during any of the 3 months prior to screening. • 3.
smiles,measurement,setting,value
CC(C)c1cccc(C(C)C)c1OCOP(=O)([O-])O.[Na+] [fospropofol disodium],Mortality,"Sprague-Dawley rats; 0, 50, 100, and 250 mg/kg/day for 14 consecutive days",treatment-related mortalities at 250 mg/kg/day
same,Body weight gain,Sprague-Dawley rats; 250 mg/kg/day,reduced body weight gain
same,Prothrombin time,Sprague-Dawley rats; 250 mg/kg/day,transient increase in prothrombin time
same,Gross observations and microscopic findings,Sprague-Dawley rats; 250 mg/kg/day main study females found dead,no treatment-related gross observations or microscopic findings
same,NOAEL,"Sprague-Dawley rats; 14 days once daily oral gavage, Sprague-Dawley rats",600 mg/m^2/day
same,Mortalities,"Sprague-Dawley rats; high dose level (250 mg/kg/day), 14 days",4
same,"Histopathology, all tissues including GIT-related",Sprague-Dawley rats; up to 250 mg/kg/day,no treatment-related histopathology findings
same,NOAEL at 14 days,[1],100 mg/kg/day
same,MTD at 7 days,[2],160 mg/kg/day
same,MTD,Beagle dogs; Beagle dogs,3200 mg/m^2/day
same,Tolerability,Beagle dogs; single fospropofol doses up to 120 mg/kg or 120 and 160 mg/kg/day once daily for 7 days,tolerated at all closes with no mortality or adverse findings
same,"Number of TEAEs, E, by severity",[3]; Mild,5
same,"Number of subjects with at least 1 TEAE, by severity",[3]; Mild,3
same,"Number of TEAEs, E, by severity",[3]; Moderate,3
same,"Number of subjects with at least 1 TEAE, by severity",[3]; Moderate,3^1
same,"Dry mouth: number of TEAEs, E",[3],1
same,"Dry mouth: subjects with TEAE, %",[3],7.7%
same,"Dysgeusia: number of TEAEs, E",[3],1
same,"Dysgeusia: subjects with TEAE, %",[3],5.6%
same,"Gastrointestinal disorders: number of TEAEs, E",[3],2
same,"Gastrointestinal disorders: subjects with TEAE, %",[3],11.1%
same,"Genital paraesthesia: number of TEAEs, E",[3],2
same,"Genital paraesthesia: subjects with TEAE, %",[3],5.6%
same,"Nausea: number of TEAEs, E",[3],1
same,"Nausea: subjects with TEAE, %",[3],7.7%
same,"Nervous system disorders: number of TEAEs, E",[3],4
same,"Nervous system disorders: subjects with TEAE, %",[3],16.7%
same,"Number of TEAEs, E",[3],9
same,"Paraesthesia: number of TEAEs, E",[3],2
same,"Paraesthesia: subjects with TEAE, %",[3],11.1%
same,"Pruritus: number of TEAEs, E",[3],1
same,"Pruritus: subjects with TEAE, %",[3],5.6%
same,"Reproductive system and breast disorders: number of TEAEs, E",[3],2
same,"Reproductive system and breast disorders: subjects with TEAE, %",[3],5.6%
same,"Skin and subcutaneous tissue disorders: number of TEAEs, E",[3],1
same,"Skin and subcutaneous tissue disorders: subjects with TEAE, %",[3],5.6%
same,"Somnolence: number of TEAEs, E",[3],1
same,"Somnolence: subjects with TEAE, %",[3],5.6%
same,"Subjects with at least 1 TEAE, %",[3],33.3%
same,Relation of TEAEs to study drug: Dry mouth,[3]; Possibly related,0
same,Relation of TEAEs to study drug: Dysgeusia,[3]; Possibly related,0
same,Relation of TEAEs to study drug: Gastrointestinal disorders,[3]; Possibly related,1
same,Relation of TEAEs to study drug: Genital paraesthesia,[3]; Possibly related,0
same,Relation of TEAEs to study drug: Nausea,[3]; Possibly related,1
same,Relation of TEAEs to study drug: Nervous system disorders,[3]; Possibly related,0
same,"Relation of TEAEs to study drug: Number of TEAEs, E",[3]; Possibly related,2
same,Relation of TEAEs to study drug: Paraesthesia,[3]; Possibly related,0
same,Relation of TEAEs to study drug: Pruritus,[3]; Possibly related,1
same,Relation of TEAEs to study drug: Reproductive system and breast disorders,[3]; Possibly related,0
same,Relation of TEAEs to study drug: Skin and subcutaneous tissue disorders,[3]; Possibly related,1
same,Relation of TEAEs to study drug: Somnolence,[3]; Possibly related,0
same,Relation of TEAEs to study drug: Dry mouth,[3]; Probably related,1
same,Relation of TEAEs to study drug: Dysgeusia,[3]; Probably related,1
same,Relation of TEAEs to study drug: Gastrointestinal disorders,[3]; Probably related,1
same,Relation of TEAEs to study drug: Genital paraesthesia,[3]; Probably related,2
same,Relation of TEAEs to study drug: Nervous system disorders,[3]; Probably related,4
same,"Relation of TEAEs to study drug: Number of TEAEs, E",[3]; Probably related,7
same,Relation of TEAEs to study drug: Paraesthesia,[3]; Probably related,2
same,Relation of TEAEs to study drug: Pruritus,[3]; Probably related,0
same,Relation of TEAEs to study drug: Reproductive system and breast disorders,[3]; Probably related,2
same,Relation of TEAEs to study drug: Skin and subcutaneous tissue disorders,[3]; Probably related,0
same,Relation of TEAEs to study drug: Somnolence,[3]; Probably related,1
same,"Number of TEAEs, E, by severity",[3]; Severe,1
same,"Number of subjects with at least 1 TEAE, by severity",[3]; Severe,1^1
